Experimental data as given in paper PMC6201879, “N-substituted phenylbenzamides of the niclosamide chemotype attenuate obesity related changes in high fat diet fed mice” (PLoS ONE, 2018).
Like-named read-outs stand apart in the source and are kept apart here.

Columns and labels:
PH5CH8 liver cells = assay: High-throughput hepatic de novo lipogenesis (DNL) assay, high content imaging of steatotic phenotype; type: cell-based, human; conditions: for IC50: Homo sapiens
p-AMPK Thr-172 = assay: Western blot of p-AMPK Thr-172 in liver of HFD-fed mice; conditions: HFD fed-DIO mice; 10mg/kg for 12 days; vs sham
[1] = tested on: carbonic anhydrase-III (CAIII); assay: Western blot of carbonic anhydrase III in liver of HFD-fed mice; conditions: HFD fed-DIO mice; 10mg/kg for 12 days; vs sham
[2] = tested on: Salmonella typhimurium (TA98, TA100, TA1535 and TA1537) and Escherichia coli (WP2 uvrA (pKM101)); assay: Ames assay, overall outcome and cytotoxicity across strains; conditions: for cytotoxicity in the Ames assay: relative to the negative control, presence and absence of S9 mix
[3] = tested on: fatty acid synthase (FAS); assay: Western blot of fatty acid synthase in liver of HFD-fed mice; conditions: HFD fed-DIO mice; 10mg/kg for 12 days; vs sham
[4] = Body weight changes in HFD-fed mice; type: in vivo, mouse; conditions: 10mg/kg I.P daily for 12 days
Protocol: We next measured body weight changes in HFD-fed animals prior to treatment with niclosamide or phenylbenzamide derivatives and after 12 days, prior to sacrifice. During this time, all animals (including sham) lost some weight.
20-week old animals were treated IP with 500199 at 10 or 25mg/kg by IP over a time-course of 9 days. At day 0, 3, 6 and 9 animals were weighed and tissue samples were collected for standard histological scoring of hepatic steatosis and automated quantitative histomorphometric scoring.

[5] = tested on: phospho-AMPK Thr-172 (p-AMPK); assay: Western blot of phospho-AMPK Thr-172 in HEK293T cells; type: cell-based, human; conditions: 1 and 10μM, negatives re-screened at 5 and 20 μM, 3 hours
Protocol: AMPK is a metabolic sensor that maintains cellular energy supply. As validation of these changes in lipid metabolism and cellular respiration we evaluated phospho-AMPK Thr-172 (p-AMPK) levels by Western blot in HEK293 cells treated with the phenylbenzamide derivatives. Compounds were screened at 1 and 10μM using the known uncouplers niclosamide and FCCP as positive controls (Fig 4A). […] We concluded that compounds that had little effect on oxygen consumption rates also had little effect on phosphorylation of AMPK.

[6] = tested on: Escherichia coli WP2 uvrA (pKM101); assay: Ames assay, strain WP2 uvrA (pKM101); conditions: for Mean Revertant Colony Counts WP2 uvrA (pKM101) SP9+: with S9; for Mean Revertant Colony Counts WP2 uvrA (pKM101) S9-: without S9
[7] = tested on: Salmonella typhimurium TA1535; conditions: for Mean Revertant Colony Counts TA-1535 SP9+: with S9; for Mean Revertant Colony Counts TA-1535 S9-: without S9
[8] = tested on: Salmonella typhimurium TA1537; conditions: for Mean Revertant Colony Counts TA-1537 SP9+: with S9; for Mean Revertant Colony Counts TA-1537 S9-: without S9
[9] = tested on: Phosphorylated AMPK (Thr-172); assay: High-throughput phosphorylated AMPK (Thr-172) TR-FRET assay in HepG2 cells; type: cell-based, human; conditions: HepG2 TR-FRET dose response between 0.625 and 10 μM, 4 hours; also Western blot
Protocol: Phosphorylated AMPK (Thr-172) TR-FRET Assay Kit was purchased from CisBio (Bedford MA). HepG2 [HB-8065] cells were trypsinized, harvested and counted using Countess II FL automated cell counter (Thermo Fisher Scientific). Cells were then seeded in Poly-D-Lysine coated 96-well black optical plates at a concentration of 10,000 cells per well in 50μL growth medium. After 24-hours, the media was removed and replaced with 50μL of fresh growth media containing compounds. Five concentrations of each compound were prepared, ranging from 10 to 0.625 μM and applied to columns 2–11 of the cell plate. Control wells contained DMSO (column 1-minimum response control) or 500199 (column 12-maximum response control). The final DMSO concentration was 0.45%. Cells were cultured for 4 hours before cells were lysed in 50μL of lysis buffer for 30 minutes at room temperature according to assays protocol. Following lysis, 16μL of lysate was transferred to white 384 well small volume assay plate and 4μL of antibody dyes were added per assay protocol.
Following overnight incubation, quantitation was performed on a PHERAstar (BMG), using the HTRF protocol with an excitation wavelength of 337nm and emission wavelengths of 665nm and 620nm. The ratio between emission spectra (665/620) was assessed for each well individually and averaged for triplicate samples. Data are presented as mean ratio ± SE. The differences between the control (DMSO) and the compound treated wells were analyzed using two-way ANOVA and Dunnett’s post hoc test. A value of p<0.05 was considered to be significant.
Fig 5 Validation of AMPK pathway activation by phenylbenzamide derivatives in HepG2 cells. A) Cells were seeded at 10,000 cells per well 24 hours prior to treating cells with indicated concentration of compound or DMSO (CTL) for 4 hours. 16μL of cell lysate was incubated with HTRF phospho-AMPK detection reagents and fluorescence emission read at 665nm and 620nm using a PHERAstar platereader. The mean and standard deviation of the HTRF Ratio from three replicate wells is shown. The unstimulated (DMSO) and positive controls lysates are shown in green and red respectively.

[10] = PH5CH8 liver cells, 10-point dose response between 1μM and 1.9nM, read-out: IC50 (uM), inhibition of steatotic phenotype in DNL assay
[11] = S1 Table, SAR for N-Substituted Phenylbenzamides, read-out: IC50
[12] = S1 Table, SAR for N-Substituted Phenylbenzamides
[13] = any concentration tested, vs negative control

SMILES: CC(C)(C)c1ccc(O)c(C(=O)Nc2ccc(C(=O)O)cc2Cl)c1 [Compound 500200, 4-[(5-tert-butyl-2-hydroxybenzene)amido]-3-chlorobenzoic acid]
- IC50 (PH5CH8 liver cells; [10]): 0.27 µM
- IC50 (PH5CH8 liver cells; [11]): 0.034 µM
- Active/Inactive (PH5CH8 liver cells; [12]): Active
- phosphorylation of AMPK at Thr-172 in liver (p-AMPK Thr-172): stimulated phosphorylation of AMPK at Thr-172
- CAIII protein levels in liver [1]: reduced
- Ames assay outcome (mutagenicity) [2]: negative
- cytotoxicity in the Ames assay [2]: cytotoxicity was exhibited at the highest concentrations in both strains
- FAS protein levels in liver [3]: reduced

SMILES: CC(C)(C)c1ccc(O)c(C(=O)Nc2ccc(C(=O)O)cc2C(F)(F)F)c1 [Compound 500873, 4-[(5-tert-butyl-2-hydroxy)amido]-3-(trifluoromethyl)benzoic acid]
- IC50 (PH5CH8 liver cells; [10]): 0.005 µM
- IC50 (PH5CH8 liver cells; [11]): 0.0046 µM
- Active/Inactive (PH5CH8 liver cells; [12]): Active
- body weight change vs sham [4]: lost weight but this loss failed to reach significance
- phosphorylation of AMPK (p-AMPK Thr-172) by Western blot [5]: no detectable changes in pAMPK levels

SMILES: CC(C)(C)c1cc(C(=O)Nc2ccc(C(=O)O)cc2Cl)c(O)c(C(C)(C)C)c1 [Compound 600453, 3-Chloro-4-[(3,5-di-tert-butyl-2-hydroxybenzene)amido]benzoic acid]
- Mean Revertant Colony Counts WP2 uvrA (pKM101) SP9+ ([6]; 1.5 ug/Well): 36.0
- Mean Revertant Colony Counts WP2 uvrA (pKM101) S9- ([6]; 1.5 ug/Well): 31.7
- Mean Revertant Colony Counts WP2 uvrA (pKM101) SP9+ ([6]; 4 ug/Well): 35.0
- Mean Revertant Colony Counts WP2 uvrA (pKM101) S9- ([6]; 4 ug/Well): 20.7
- Mean Revertant Colony Counts WP2 uvrA (pKM101) SP9+ ([6]; 10 ug/Well): 31.7
- Mean Revertant Colony Counts WP2 uvrA (pKM101) S9- ([6]; 10 ug/Well): 29.3
- Mean Revertant Colony Counts WP2 uvrA (pKM101) SP9+ ([6]; 25 ug/Well): 33.3
- Mean Revertant Colony Counts WP2 uvrA (pKM101) S9- ([6]; 25 ug/Well): 15.7
- Mean Revertant Colony Counts WP2 uvrA (pKM101) SP9+ ([6]; 64 ug/Well): 28.0
- Mean Revertant Colony Counts WP2 uvrA (pKM101) S9- ([6]; 64 ug/Well): 23.0
- Mean Revertant Colony Counts WP2 uvrA (pKM101) SP9+ ([6]; 160 ug/Well): 23.0
- Mean Revertant Colony Counts WP2 uvrA (pKM101) S9- ([6]; 160 ug/Well): 20.0
- Mean Revertant Colony Counts WP2 uvrA (pKM101) SP9+ ([6]; 400 ug/Well): 15.3
- Mean Revertant Colony Counts WP2 uvrA (pKM101) S9- ([6]; 400 ug/Well): 9.0
- Mean Revertant Colony Counts WP2 uvrA (pKM101) SP9+ ([6]; 1000 ug/Well): 9.0
- Mean Revertant Colony Counts WP2 uvrA (pKM101) S9- ([6]; 1000 ug/Well): 3.7
- fold increase in the mean number of revertant colonies, WP2 uvrA (pKM101) [6, 13]: < 2 fold
- IC50 (PH5CH8 liver cells; [10]): 0.14 µM
- IC50 (PH5CH8 liver cells; [11]): 0.091 µM
- Active/Inactive (PH5CH8 liver cells; [12]): Active
- body weight change vs sham [4]: lost significantly more weight
- phosphorylation of AMPK at Thr-172 in liver (p-AMPK Thr-172): stimulated phosphorylation of AMPK at Thr-172
- CAIII protein levels in liver [1]: reduced
- Mean Revertant Colony Counts TA-1535 SP9+ ([7]; 1.5 ug/Well): 2.7
- Mean Revertant Colony Counts TA-1535 S9- ([7]; 1.5 ug/Well): 4.0
- Mean Revertant Colony Counts TA-1535 SP9+ ([7]; 4 ug/Well): 3.7
- Mean Revertant Colony Counts TA-1535 S9- ([7]; 4 ug/Well): 3.7
- Mean Revertant Colony Counts TA-1535 SP9+ ([7]; 10 ug/Well): 2.7
- Mean Revertant Colony Counts TA-1535 S9- ([7]; 10 ug/Well): 1.7
- Mean Revertant Colony Counts TA-1535 SP9+ ([7]; 25 ug/Well): 2.3
- Mean Revertant Colony Counts TA-1535 S9- ([7]; 25 ug/Well): 2.7
- Mean Revertant Colony Counts TA-1535 SP9+ ([7]; 64 ug/Well): 3.0
- Mean Revertant Colony Counts TA-1535 S9- ([7]; 64 ug/Well): 1.7
- Mean Revertant Colony Counts TA-1535 SP9+ ([7]; 160 ug/Well): 3.3
- Mean Revertant Colony Counts TA-1535 S9- ([7]; 160 ug/Well): 4.0
- Mean Revertant Colony Counts TA-1535 SP9+ ([7]; 400 ug/Well): 2.0
- Mean Revertant Colony Counts TA-1535 S9- ([7]; 400 ug/Well): 2.7
- Mean Revertant Colony Counts TA-1535 SP9+ ([7]; 1000 ug/Well): 2.0
- Mean Revertant Colony Counts TA-1535 S9- ([7]; 1000 ug/Well): 2.7
- fold increase in the mean number of revertant colonies, TA1535 [7, 13]: < 3 fold
- Mean Revertant Colony Counts TA-1537 SP9+ ([8]; 1.5 ug/Well): 2.3
- Mean Revertant Colony Counts TA-1537 S9- ([8]; 1.5 ug/Well): 0.7
- Mean Revertant Colony Counts TA-1537 SP9+ ([8]; 4 ug/Well): 3.3
- Mean Revertant Colony Counts TA-1537 S9- ([8]; 4 ug/Well): 1.3
- Mean Revertant Colony Counts TA-1537 SP9+ ([8]; 10 ug/Well): 1.7
- Mean Revertant Colony Counts TA-1537 S9- ([8]; 10 ug/Well): 2.3
- Mean Revertant Colony Counts TA-1537 SP9+ ([8]; 25 ug/Well): 1.7
- Mean Revertant Colony Counts TA-1537 S9- ([8]; 25 ug/Well): 1.3
- Mean Revertant Colony Counts TA-1537 SP9+ ([8]; 64 ug/Well): 1.0
- Mean Revertant Colony Counts TA-1537 S9- ([8]; 64 ug/Well): 0.3
- Mean Revertant Colony Counts TA-1537 SP9+ ([8]; 160 ug/Well): 3.3
- Mean Revertant Colony Counts TA-1537 S9- ([8]; 160 ug/Well): 0.0
- Mean Revertant Colony Counts TA-1537 SP9+ ([8]; 400 ug/Well): 0.7
- Mean Revertant Colony Counts TA-1537 S9- ([8]; 400 ug/Well): 1.0
- Mean Revertant Colony Counts TA-1537 SP9+ ([8]; 1000 ug/Well): 3.7
- Mean Revertant Colony Counts TA-1537 S9- ([8]; 1000 ug/Well): 0.3
- fold increase in the mean number of revertant colonies, TA1537 [8, 13]: < 3 fold
- phosphorylation of AMPK (Figs 5 and 4D) [9]: stimulated phosphorylation of AMPK
- Ames assay outcome (mutagenicity) [2]: negative
- cytotoxicity in the Ames assay [2]: no cytotoxicity was exhibited at any concentration
- FAS protein levels in liver [3]: reduced

SMILES: CC(C)(C)c1ccc(O)c(C(=O)Nc2cc(C(=O)O)ccc2Cl)c1 [Compound 600494, 3-{[2-Hydroxy-5-(tert-butyl)benzene]amido}-4chloro-benzoic acid]
- IC50 (PH5CH8 liver cells; [10]): 0.004 µM
- IC50 (PH5CH8 liver cells; S1 Table. SAR for N-Substituted Phenylbenzamides, read-out: IC50): 0.0039 µM
- Active/Inactive (PH5CH8 liver cells; S1 Table. SAR for N-Substituted Phenylbenzamides): Active
